Laboratory results from patent publication US20230085307A1, “PYRIDAZINONE COMPOUND AND HERBICIDE” (NISSAN CHEMICAL CORPORATION, priority 2019, published 2023).

Tested on: oval-leafed pondweed
Assay: Test Example 2: herbicidal activity, application during weed generation under submerged conditions (Table 17, symbol C)
Type: in vivo, oval-leafed pondweed (Monochoria vaginalis)
Settings: AAH 320 g/ha; application during weed generation, submerged conditions
How it was run: (§1)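 3-wk visual-criteria score after one water-surface dose. Emulsion formulation, water-diluted to set rate; applied at 1–2 leaf stage; alluvial soil, 4 cm standing water; seeds co-sown; greenhouse 25–30° C.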

| Compound | herbicidal effect rating, C: oval-leafed pondweed |
| --- | --- |
| Cc1nn(C)c(=O)c(-c2c(-c3ccc(O)cc3)sc3ccc(F)cc23)c1O [2-337] | 0 (Herbicidal rate of 5% or less (almost no effect)) |
| Cc1nn(C)c(=O)c(-c2c(-c3ccc([N+](=O)[O-])cc3)sc3ccc(F)cc23)c1O [2-341] | 3 (Herbicidal rate of 40% or more and less than 70%) |

Tested on: Italian ryegrass
Assay: Test Example 4: herbicidal effect by soil treatment (Table 19, symbol K)
Type: in vivo, Italian ryegrass (Lolium multiflorum)
Settings: amount of applied herbicide 320 g/ha
How it was run: (§2)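 Soil-surface application: an emulsion agent diluted with water to the predetermined dose is sprayed uniformly over seeds lying under roughly 1.5 cm of sterilized diluvial soil. Boxes stay in a greenhouse at 25° C. to 30° C. Three weeks later, each species is graded on previously defined criteria.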

| Compound | herbicidal effect on K: Italian ryegrass |
| --- | --- |
| Cc1nn(C)c(=O)c(-c2c(-c3ccc(O)cc3)sc3ccc(F)cc23)c1O [2-337] | 0 (Herbicidal rate of 5% or less (almost no effect)) |
| Cc1nn(C)c(=O)c(-c2c(-c3ccc([N+](=O)[O-])cc3)sc3ccc(F)cc23)c1O [2-341] | 5 (Herbicidal rate of 90% or more (almost completely withered)) |

Tested on: wild oat
Assay: Test Example 5: herbicidal effect by foliage application, plastic box (Table 20, symbol I)
Type: in vivo, wild oat (Avena fatua)
Settings: foliage application, AAH 320 g/ha, evaluated three weeks after application
How it was run: (§3)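 Sow seeds spot-wise in sterilized diluvial soil; cover with ~1.5 cm soil. Grow 14 days in greenhouse, 25° C. to 30° C. Spray foliage with emulsion diluted to predetermined amount. Rate effect after 3 weeks.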

| Compound | I: wild oat, herbicidal effect (criteria 0-5) |
| --- | --- |
| Cc1nn(C)c(=O)c(-c2c(-c3ccc(O)cc3)sc3ccc(F)cc23)c1O [2-337] | 0 (Herbicidal rate of 5% or less (almost no effect)) |
| Cc1nn(C)c(=O)c(-c2c(-c3ccc([N+](=O)[O-])cc3)sc3ccc(F)cc23)c1O [2-341] | 4 (Herbicidal rate of 70% or more and less than 90%) |

Tested on: Japanese bulrush
Assay: Test Example 1: herbicidal activity, application before weed generation under submerged conditions (Table 16, symbol B)
Type: in vivo, Japanese bulrush (Schoenoplectus juncoides)
Settings: 320 g/ha applied herbicide
How it was run: (§4)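 Alluvial soil was flooded to 4 cm depth, weed seeds were sown mixed and 2.5-leaf rice seedlings were transplanted. On sowing day, the compound's emulsion, diluted in water to a set dose, was applied to the water surface. Plants grew at 25–30 °C and were scored 0–5 after three weeks.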

| Compound | Herbicidal effect on B: Japanese bulrush (grade 0-5) |
| --- | --- |
| Cc1nn(C)c(=O)c(-c2c(-c3ccc(O)cc3)sc3ccc(F)cc23)c1O [2-337] | 3 (Herbicidal rate of 40% or more and less than 70%) |
| Cc1nn(C)c(=O)c(-c2c(-c3ccc([N+](=O)[O-])cc3)sc3ccc(F)cc23)c1O [2-341] | 4 (Herbicidal rate of 70% or more and less than 90%) |

Tested on: late watergrass
Assay: Test Example 2: herbicidal activity, application during weed generation under submerged conditions (Table 17, symbol A)
Type: in vivo, late watergrass (Echinochloa oryzicola)
Settings: AAH 320 g/ha; application during weed generation, submerged conditions
How it was run: as §1

| Compound | herbicidal effect rating, A: late watergrass |
| --- | --- |
| Cc1nn(C)c(=O)c(-c2c(-c3ccc(O)cc3)sc3ccc(F)cc23)c1O [2-337] | 0 (Herbicidal rate of 5% or less (almost no effect)) |
| Cc1nn(C)c(=O)c(-c2c(-c3ccc([N+](=O)[O-])cc3)sc3ccc(F)cc23)c1O [2-341] | 3 (Herbicidal rate of 40% or more and less than 70%) |

Tested on: green foxtail
Assay: Test Example 5: herbicidal effect by foliage application, plastic box (Table 20, symbol G)
Type: in vivo, green foxtail (Setaria viridis)
Settings: foliage application, AAH 320 g/ha, evaluated three weeks after application
How it was run: as §3

| Compound | G: green foxtail, herbicidal effect (criteria 0-5) |
| --- | --- |
| Cc1nn(C)c(=O)c(-c2c(-c3ccc(O)cc3)sc3ccc(F)cc23)c1O [2-337] | 0 (Herbicidal rate of 5% or less (almost no effect)) |
| Cc1nn(C)c(=O)c(-c2c(-c3ccc([N+](=O)[O-])cc3)sc3ccc(F)cc23)c1O [2-341] | 5 (Herbicidal rate of 90% or more (almost completely withered)) |

Tested on: false cleavers
Assay: Test Example 4: herbicidal effect by soil treatment (Table 19, symbol Q)
Type: in vivo, false cleavers (Galium spurium)
Settings: amount of applied herbicide 320 g/ha
How it was run: as §2

| Compound | herbicidal effect on Q: false cleavers |
| --- | --- |
| Cc1nn(C)c(=O)c(-c2c(-c3ccc(O)cc3)sc3ccc(F)cc23)c1O [2-337] | 0 (Herbicidal rate of 5% or less (almost no effect)) |
| Cc1nn(C)c(=O)c(-c2c(-c3ccc([N+](=O)[O-])cc3)sc3ccc(F)cc23)c1O [2-341] | 0 (Herbicidal rate of 5% or less (almost no effect)) |

Tested on: barnyard grass
Assay: Test Example 5: herbicidal effect by foliage application, plastic box (Table 20, symbol H)
Type: in vivo, barnyard grass (Echinochloa crus-galli)
Settings: foliage application, AAH 320 g/ha, evaluated three weeks after application
How it was run: as §3

| Compound | H: barnyard grass, herbicidal effect (criteria 0-5) |
| --- | --- |
| Cc1nn(C)c(=O)c(-c2c(-c3ccc(O)cc3)sc3ccc(F)cc23)c1O [2-337] | 0 (Herbicidal rate of 5% or less (almost no effect)) |
| Cc1nn(C)c(=O)c(-c2c(-c3ccc([N+](=O)[O-])cc3)sc3ccc(F)cc23)c1O [2-341] | 4 (Herbicidal rate of 70% or more and less than 90%) |

Tested on: blackgrass
Assay: Test Example 5: herbicidal effect by foliage application, plastic box (Table 20, symbol J)
Type: in vivo, blackgrass (Alopecurus myosuroides)
Settings: foliage application, AAH 320 g/ha, evaluated three weeks after application
How it was run: as §3

| Compound | J: blackgrass, herbicidal effect (criteria 0-5) |
| --- | --- |
| Cc1nn(C)c(=O)c(-c2c(-c3ccc(O)cc3)sc3ccc(F)cc23)c1O [2-337] | 0 (Herbicidal rate of 5% or less (almost no effect)) |
| Cc1nn(C)c(=O)c(-c2c(-c3ccc([N+](=O)[O-])cc3)sc3ccc(F)cc23)c1O [2-341] | 4 (Herbicidal rate of 70% or more and less than 90%) |

Tested on: redroot pigweed
Assay: Test Example 4: herbicidal effect by soil treatment (Table 19, symbol N)
Type: in vivo, redroot pigweed (Amaranthus retroflexus)
Settings: amount of applied herbicide 320 g/ha
How it was run: as §2

| Compound | herbicidal effect on N: redroot pigweed |
| --- | --- |
| Cc1nn(C)c(=O)c(-c2c(-c3ccc(O)cc3)sc3ccc(F)cc23)c1O [2-337] | 0 (Herbicidal rate of 5% or less (almost no effect)) |
| Cc1nn(C)c(=O)c(-c2c(-c3ccc([N+](=O)[O-])cc3)sc3ccc(F)cc23)c1O [2-341] | 5 (Herbicidal rate of 90% or more (almost completely withered)) |

Tested on: southern crabgrass
Assay: Test Example 5: herbicidal effect by foliage application, plastic box (Table 20, symbol F)
Type: in vivo, southern crabgrass (Digitaria ciliaris)
Settings: foliage application, AAH 320 g/ha, evaluated three weeks after application
How it was run: as §3

| Compound | F: southern crabgrass, herbicidal effect (criteria 0-5) |
| --- | --- |
| Cc1nn(C)c(=O)c(-c2c(-c3ccc(O)cc3)sc3ccc(F)cc23)c1O [2-337] | 0 (Herbicidal rate of 5% or less (almost no effect)) |
| Cc1nn(C)c(=O)c(-c2c(-c3ccc([N+](=O)[O-])cc3)sc3ccc(F)cc23)c1O [2-341] | 5 (Herbicidal rate of 90% or more (almost completely withered)) |

Tested on: windgrass
Assay: Test Example 4: herbicidal effect by soil treatment (Table 19, symbol L)
Type: in vivo, windgrass (Apera spica-venti)
Settings: amount of applied herbicide 320 g/ha
How it was run: as §2

| Compound | herbicidal effect on L: windgrass |
| --- | --- |
| Cc1nn(C)c(=O)c(-c2c(-c3ccc(O)cc3)sc3ccc(F)cc23)c1O [2-337] | 0 (Herbicidal rate of 5% or less (almost no effect)) |
| Cc1nn(C)c(=O)c(-c2c(-c3ccc([N+](=O)[O-])cc3)sc3ccc(F)cc23)c1O [2-341] | 1 (Herbicidal rate of 5% or more and less than 20%) |

Tested on: late watergrass
Assay: Test Example 1: herbicidal activity, application before weed generation under submerged conditions (Table 16, symbol A)
Type: in vivo, late watergrass (Echinochloa oryzicola)
Settings: 320 g/ha applied herbicide
How it was run: as §4

| Compound | Herbicidal effect on A: late watergrass (grade 0-5) |
| --- | --- |
| Cc1nn(C)c(=O)c(-c2c(-c3ccc(O)cc3)sc3ccc(F)cc23)c1O [2-337] | 4 (Herbicidal rate of 70% or more and less than 90%) |
| Cc1nn(C)c(=O)c(-c2c(-c3ccc([N+](=O)[O-])cc3)sc3ccc(F)cc23)c1O [2-341] | 3 (Herbicidal rate of 40% or more and less than 70%) |

Tested on: rice flat sedge
Assay: Test Example 3: herbicidal effect by foliage application, Wagner pot (Table 18, symbol E)
Type: in vivo, rice flat sedge (Cyperus iria)
Settings: amount of applied herbicide 320 g/ha
How it was run: (§5)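 Plants were sown in alluvial soil held under 0.1–0.5 cm standing water and grown 14 days in a greenhouse at 25–30 °C. An emulsifiable formulation, water-diluted to the set dose, was then sprayed onto the foliage, and effects were scored three weeks later using previously defined criteria.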

| Compound | herbicidal effect on E: rice flat sedge |
| --- | --- |
| Cc1nn(C)c(=O)c(-c2c(-c3ccc(O)cc3)sc3ccc(F)cc23)c1O [2-337] | 3 (Herbicidal rate of 40% or more and less than 70%) |
| Cc1nn(C)c(=O)c(-c2c(-c3ccc([N+](=O)[O-])cc3)sc3ccc(F)cc23)c1O [2-341] | 3 (Herbicidal rate of 40% or more and less than 70%) |

Tested on: persian speedwell
Assay: Test Example 5: herbicidal effect by foliage application, plastic box (Table 20, symbol R)
Type: in vivo, Persian speedwell (Veronica persica)
Settings: foliage application, AAH 320 g/ha, evaluated three weeks after application
How it was run: as §3

| Compound | R: persian speedwell, herbicidal effect (criteria 0-5) |
| --- | --- |
| Cc1nn(C)c(=O)c(-c2c(-c3ccc(O)cc3)sc3ccc(F)cc23)c1O [2-337] | 5 (Herbicidal rate of 90% or more (almost completely withered)) |
| Cc1nn(C)c(=O)c(-c2c(-c3ccc([N+](=O)[O-])cc3)sc3ccc(F)cc23)c1O [2-341] | 5 (Herbicidal rate of 90% or more (almost completely withered)) |

Tested on: barnyard grass
Assay: Test Example 3: herbicidal effect by foliage application, Wagner pot (Table 18, symbol H)
Type: in vivo, barnyard grass (Echinochloa crus-galli)
Settings: amount of applied herbicide 320 g/ha
How it was run: as §5

| Compound | herbicidal effect on H: barnyard grass |
| --- | --- |
| Cc1nn(C)c(=O)c(-c2c(-c3ccc(O)cc3)sc3ccc(F)cc23)c1O [2-337] | 3 (Herbicidal rate of 40% or more and less than 70%) |
| Cc1nn(C)c(=O)c(-c2c(-c3ccc([N+](=O)[O-])cc3)sc3ccc(F)cc23)c1O [2-341] | 4 (Herbicidal rate of 70% or more and less than 90%) |

Tested on: Chinese sprangletop
Assay: Test Example 3: herbicidal effect by foliage application, Wagner pot (Table 18, symbol D)
Type: in vivo, chinese sprangletop (Leptochloa chinensis)
Settings: amount of applied herbicide 320 g/ha
How it was run: as §5

| Compound | herbicidal effect on D: Chinese sprangletop |
| --- | --- |
| Cc1nn(C)c(=O)c(-c2c(-c3ccc(O)cc3)sc3ccc(F)cc23)c1O [2-337] | 0 (Herbicidal rate of 5% or less (almost no effect)) |
| Cc1nn(C)c(=O)c(-c2c(-c3ccc([N+](=O)[O-])cc3)sc3ccc(F)cc23)c1O [2-341] | 3 (Herbicidal rate of 40% or more and less than 70%) |
